Measured values taken from patent US9221868B2, “Uridine di- or tri-phosphate derivatives and uses thereof” (BAR-ILAN UNIVERSITY, priority 2010, dated 2015).

Tests used:
[1] = test system: intraocular pressure in normotense rabbits; experiment: Intraocular pressure (IOP) in normotense rabbits; format: in vivo, New Zealand white rabbits; settings: for Reduction of IOP: applied to the cornea, 100 μM, 10 μl
Description: Twenty-four male New Zealand white rabbits (2.5±0.5 kg) were kept in individual cages with free access to food and water on controlled 12 h/12 h light/dark cycles. All the protocols used adhere to the Association for Research in Vision and Ophthalmology (ARVO) Statement for the Use of Animals in Ophthalmology and Vision Research and also are in accordance with the European Communities Council Directive (86/609/EEC).
Intraocular pressure (IOP) was measured by means of a TonoVET rebound tonometer supplied by Tiolat Oy (Helsinki, Finland). […] For single dose experiments, different analogues were applied unilaterally to the cornea at a concentration of 100 μM and a fixed volume of 10 μl. The contralateral eye received the same volume of saline solution (0.9% NaCl, vehicle). Two IOP measurements were taken before any analogue was instilled. Experiments were performed following a blinded design where no visible indication was given to the experimenter as to the nature of the applied solution. IOP was followed up to 8 h to study the time course of the effect. Some of the analogues were assayed over a range of doses from 1 nM to 100 μM to generate dose-response curves. For these experiments, […] was measured as the maximal response obtained with each dose of the analogue. Dose-response curves were calculated by plotting the IOP value for given concentration versus that concentration (from 1 nM to 100 μM). pD2 values were obtained by fitting the values to a dose-response-curve equation according to ORIGIN8.0 software. With the pD2 value it was possible to calculate the EC50 by multiplying by −1 and then take the antilogarithm. The obtained value is the EC50 expressed in molar concentration. In all experiments, on any given day, only a single dose was tested on a single animal, which was washed out at least 2 days between doses. […]
All data are presented as the means±s.e.m. Significant differences were determined by two-tailed Student's t-tests. […]

[2] = biological target: T1, P2Y6-R (Homo sapiens, UniProt Q15077); experiment: [Ca2+]i increase in 1321N1 astrocytoma cells expressing P2Y6-R; format: cell-based; settings: for EC50: 1321N1 astrocytoma cells, [Ca2+]i, read-out: Potencies (EC50) at the P2Y6-R
T1 construct: expressed in transfected cells; host or cells: 1321N1 astrocytoma cells
T1 sequence (Q15077 whole entry): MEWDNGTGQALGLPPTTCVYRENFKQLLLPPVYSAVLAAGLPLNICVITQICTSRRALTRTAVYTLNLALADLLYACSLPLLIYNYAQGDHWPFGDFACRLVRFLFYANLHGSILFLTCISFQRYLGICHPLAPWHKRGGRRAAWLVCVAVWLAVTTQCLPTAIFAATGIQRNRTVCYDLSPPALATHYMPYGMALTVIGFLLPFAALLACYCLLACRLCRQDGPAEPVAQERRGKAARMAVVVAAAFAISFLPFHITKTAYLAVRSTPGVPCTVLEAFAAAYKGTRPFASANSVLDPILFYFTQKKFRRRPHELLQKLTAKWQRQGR
Description: Green fluorescent protein (GFP) constructs of human P2Y2-R, P2Y4-R and P2Y6-R were expressed in 1321N1 astrocytoma cells, which lack endogenous expression of P2X- and P2Y-receptors. The respective cDNA of the receptor gene was cloned into a pEGFPN1 vector. After transfection using FuGENE 6 Transfection Reagent (Roche Molecular Biochemicals, Mannheim, Germany), the cells were selected with 0.5 mg/ml G418 (geneticine; Merck Chemicals, Darmstadt, Germany) and grown in Dulbecco's modified Eagles' medium (DMEM) supplemented with 10% fetal calf serum, 100 U/ml penicillin and […] at 37° C. and 5% CO2. The expression and cell membrane localization of the respective P2Y receptors was confirmed through the analysis of the GFP fluorescence. The functionality of the expressed GFP-labeled receptor in cells was verified by recording a change of [Ca^2+]i after stimulation with the appropriate receptor agonist.
1321N1 astrocytoma cells transfected with the respective plasmid for P2YR-GFP expression plated on coverslips (22 mm diameter) and grown to approximately 80% density were incubated with 2 μM fura 2/AM and 0.02% pluronic acid in Na-HBS buffer (Hepes buffered saline: 145 mM NaCl, 5.4 mM KCl, 1.8 mM CaCl2, 1 mM MgCl2, 25 mM glucose, 20 mM Hepes/Tris pH 7.4) for 30 min at 37° C. The cells were superfused (1 ml/min, 37° C.) with different concentrations of nucleotide in Na-HBS buffer, and the nucleotide-induced change of [Ca^2+]i was measured by detecting the respective emission intensity of fura 2/AM at 510 nm with after 340 nm and 380 nm excitations (Ubl et al., 1998). The average maximal amplitude of the responses and the respective standard errors were calculated from the ratio of the fura 2/AM fluorescence intensities with excitations at 340 nm and 380 nm (only MT-labeled cells were analysed). Microsoft Excel (Microsoft Corp., Redmond, Wash., USA) and SigmaPlot (SPSS Inc., Chicago, Ill., USA) were used to derive the concentration-response curves and EC50 values from the average response amplitudes obtained in at least three independent experiments (Ecke et al., 2006, 2008). Only cells with a clear MT-signal and with the typical calcium response kinetics upon agonist pulse application were included in the data analysis. The GFP-tagged P2Y receptors are suitable for pharmacological and physiological studies, as previously reported (Tulapurkar et al., 2004, 2006; Zylberg et al., 2007).
1321N1 cell lines stably expressing the human P2Y6 receptors were grown as previously described in DMEM (5% FBS, 100 IU/ml penicillin, 100 μg/ml streptomycin, 1× Glutamax, 10 mM Hepes and 0.5 mg/ml G-418) at 37° C. in a humidified atmosphere containing 5% CO2 and 95% air (Gendron et al., 2003).
1321N1 cells (10×10^6 cells grown in 10 cm^2 dishes) were harvested by a brief trypsin/EDTA treatment, suspended in complete culture medium, and washed by centrifugation for 3 min at 100×g before being incubated with 1 μM Fluo 4/AM in 4.5 ml HBSS with Ca^2+ and Mg^2+ (Wisent, St. Bruno, QC) for 25 min at 37° C. Cells were washed by centrifugation (100×g, 3 min), suspended in HBSS containing Ca^2+ and Mg^2+, and incubated for 25 min at 37° C. Cells were washed and suspended in 16 ml of FIBSS containing Ca^+ and Mg^2+. Cell suspension (2 ml) was gently stirred in a quartz cuvette while [Ca^2+]i and monitored on a RF-5301 PC Shimadzu spectrofluorometer with Panormama fluorescence 1.1 software (Man-Tech, Guelph, ON). Excitation wavelengths of 488 nm and emission wavelength of 520 nm were used to measure changes in intracellular Fluo 4 fluorescence intensity (F). At the end of each recording, maximal fluorescence (Fmax) and minimal fluorescence (Fmin) were determined by adding successively 0.1% Triton X-100 and 50 mM EDTA to cell suspensions. The following equation from Grynkiewicz et al. (1985) was used to relate the fluorescence intensity to Ca^2+ levels: [Ca^2+]=Kd×(F−Fmin)/(Fmax−F), wherein Kd is the Ca^+ dissociation constant of the indicator (345 nM). […]

[3] = biological target: P2Y6-receptor (Homo sapiens, UniProt Q15077); settings: Ginsburg-Shmuel et al., 2010; read-out: EC50 at P2Y6-receptor (literature); cited from earlier work
P2Y6-receptor, sequence (Q15077 whole entry): as above

SMILES | Duration of action (IOP reduction) [1] | Reduction of IOP [1] | EC50 [2] | Potency of A-isomer relative to the corresponding B-isomer at P2Y6-R ([2]; ratio of EC50 values) | EC50 [3]
[BH3-][P+](O)(OCC1OC(n2cc(OC)c(=O)[nH]c2=O)C(O)C1O)OP(=O)(O)O (single isomer, unassigned) [Analogue 13A, 5-methoxyuridine-5′-O-(α-boranodiphosphate)] | about 4 h | 45% | 8 nM | more than 500 fold | –
COc1cn([C@@H]2O[C@H](COP(=O)(O)OP(=O)(O)O)[C@@H](O)[C@H]2O)c(=O)[nH]c1=O [Analogue 12, 5-methoxyuridine diphosphate] | – | 31% | – | – | –
O=c1ccn([C@@H]2O[C@H](COP(=O)(O)OP(=O)(O)O)[C@@H](O)[C@H]2O)c(=O)[nH]1 [UDP, reference compound] | – | – | 150 nM | – | 140 nM
